Article PMC7835237, “Dual mechanism β-amino acid polymers promoting cell adhesion” (Nature Communications, 2021)

Assays:
[1] = test system: MC3T3-E1 preosteoblast cells; experiment: Cell spreading area on modified surfaces (immunofluorescence analysis of cell morphology); format: cell-based, mouse
Method: The degree of cell spreading on a functionalized glass slide was measured by immunofluorescence analysis. After culture medium was removed, the slide was washed with PBS and then cells on the slide were fixed with 4% paraformaldehyde for 20 min. The slide was washed with PBS thrice and incubated for 5 min with 0.4% triton-X in PBS. Subsequently, the slide was washed with PBS thrice, followed by blocking with 3% bovine serum albumin (BSA) in PBS for 1 h at rt and then incubated with Alexa Fluor-555-conjugated anti-vinculin antibody (1:300 in PBS) overnight at 4 °C. The slide was washed with PBS thrice and incubated for 2 h with FITC-phalloidin (1:200 in PBS) and 4′-6-diamidino-2-phenylindole (DAPI) (5 μg/mL) for 10 min. The slide was washed with PBS thrice and its fluorescent images were collected on a confocal microscope (Nikon A1R, Japan).

[2] = test system: MC3T3-E1 preosteoblast cells; experiment: Cell adhesion in a serum-free environment with enzyme-pretreated cells; format: cell-based, mouse; parameters: unit not given here; conditions: serum-free medium, 1 day
Method: Cells were detached and washed thrice with a serum-free medium. In order to examine the impact of cell membrane-tethered proteins on cell adhesion in a serum-free environment, cells were suspended and incubated at 37 °C for 20 min in 3 mL serum-free α-MEM medium that contains 0.307 U/mL plasmin, 10 U/mL collagenase (types I and II), 2 U/mL heparinase (types I, II, and III), or 10 U/mL hyaluronidase, respectively. The protease-treated cells were washed and suspended in a serum-free α-MEM to a final concentration of 1.5 × 10^5 cells/mL. An aliquot of 10 μL this cell suspension was added to each individual well (formed by a 50-well silicon coverslip on the top of a glass slide) that has bottom surface modified with DM50CO50, RGD, or KRSR, respectively, and then the slide was placed in a petri dish for incubation at 37 °C for 2 h for cell attachment. Then additional fresh medium was added into the petri dish to immerse the entire slide and the whole dish was incubated for 1 day. After removing the medium, cells were stained with a live/dead staining solution and the fluorescent images were captured under a microscope (Nikon Eclipse Ti-S, Japan) at different locations of each well. The collected images were analyzed using Image-pro plus software.

[3] = Control: untreated cells, value 1 of n = 9
[4] = Control: untreated cells, value 2 of n = 9
[5] = Control: untreated cells, value 3 of n = 9
[6] = Control: untreated cells, value 4 of n = 9
[7] = Control: untreated cells, value 5 of n = 9
[8] = Control: untreated cells, value 6 of n = 9
[9] = Control: untreated cells, value 7 of n = 9
[10] = Control: untreated cells, value 8 of n = 9
[11] = Control: untreated cells, value 9 of n = 9
[12] = cells pretreated with Collagenase 10 U/mL, value 1 of n = 9
[13] = cells pretreated with Collagenase 10 U/mL, value 2 of n = 9
[14] = cells pretreated with Collagenase 10 U/mL, value 3 of n = 9
[15] = cells pretreated with Collagenase 10 U/mL, value 4 of n = 9
[16] = cells pretreated with Collagenase 10 U/mL, value 5 of n = 9
[17] = cells pretreated with Collagenase 10 U/mL, value 6 of n = 9
[18] = cells pretreated with Collagenase 10 U/mL, value 7 of n = 9
[19] = cells pretreated with Collagenase 10 U/mL, value 8 of n = 9
[20] = cells pretreated with Collagenase 10 U/mL, value 9 of n = 9
[21] = cells pretreated with Heparinase 2 U/mL, value 1 of n = 9
[22] = cells pretreated with Heparinase 2 U/mL, value 2 of n = 9
[23] = cells pretreated with Heparinase 2 U/mL, value 3 of n = 9
[24] = cells pretreated with Heparinase 2 U/mL, value 4 of n = 9
[25] = cells pretreated with Heparinase 2 U/mL, value 5 of n = 9
[26] = cells pretreated with Heparinase 2 U/mL, value 6 of n = 9
[27] = cells pretreated with Heparinase 2 U/mL, value 7 of n = 9
[28] = cells pretreated with Heparinase 2 U/mL, value 8 of n = 9
[29] = cells pretreated with Heparinase 2 U/mL, value 9 of n = 9
[30] = cells pretreated with Hyaluronidase 10 U/mL, value 1 of n = 9
[31] = cells pretreated with Hyaluronidase 10 U/mL, value 2 of n = 9
[32] = cells pretreated with Hyaluronidase 10 U/mL, value 3 of n = 9
[33] = cells pretreated with Hyaluronidase 10 U/mL, value 4 of n = 9
[34] = cells pretreated with Hyaluronidase 10 U/mL, value 5 of n = 9
[35] = cells pretreated with Hyaluronidase 10 U/mL, value 6 of n = 9
[36] = cells pretreated with Hyaluronidase 10 U/mL, value 7 of n = 9
[37] = cells pretreated with Hyaluronidase 10 U/mL, value 8 of n = 9
[38] = cells pretreated with Hyaluronidase 10 U/mL, value 9 of n = 9
[39] = cells pretreated with Plasmin 0.307 U/mL, value 1 of n = 9
[40] = cells pretreated with Plasmin 0.307 U/mL, value 2 of n = 9
[41] = cells pretreated with Plasmin 0.307 U/mL, value 3 of n = 9
[42] = cells pretreated with Plasmin 0.307 U/mL, value 4 of n = 9
[43] = cells pretreated with Plasmin 0.307 U/mL, value 5 of n = 9
[44] = cells pretreated with Plasmin 0.307 U/mL, value 6 of n = 9
[45] = cells pretreated with Plasmin 0.307 U/mL, value 7 of n = 9
[46] = cells pretreated with Plasmin 0.307 U/mL, value 8 of n = 9
[47] = cells pretreated with Plasmin 0.307 U/mL, value 9 of n = 9

KRSRGYC
Cell area of preosteoblast cells ([1]; cultured on modified surface for 3 h, replicate 1): 2526 | Cell area of preosteoblast cells ([1]; cultured on modified surface for 3 h, replicate 2): 2456 | Cell area of preosteoblast cells ([1]; cultured on modified surface for 3 h, replicate 3): 2659 | Cell area of preosteoblast cells ([1]; cultured on modified surface for 24 h, replicate 1): 4026 | Cell area of preosteoblast cells ([1]; cultured on modified surface for 24 h, replicate 2): 4102 | Cell area of preosteoblast cells ([1]; cultured on modified surface for 24 h, replicate 3): 4230 | Cell density (figure 6c) [2, 3]: 96 | Cell spreading area (figure 6b) [2, 3]: 2152 | Cell density (figure 6c) [2, 4]: 95 | Cell spreading area (figure 6b) [2, 4]: 2263 | Cell density (figure 6c) [2, 5]: 98 | Cell spreading area (figure 6b) [2, 5]: 2236 | Cell density (figure 6c) [2, 6]: 96 | Cell spreading area (figure 6b) [2, 6]: 2265 | Cell density (figure 6c) [2, 7]: 96 | Cell spreading area (figure 6b) [2, 7]: 2150 | Cell density (figure 6c) [2, 8]: 90 | Cell spreading area (figure 6b) [2, 8]: 2154 | Cell density (figure 6c) [2, 9]: 96 | Cell spreading area (figure 6b) [2, 9]: 2365 | Cell density (figure 6c) [2, 10]: 89 | Cell spreading area (figure 6b) [2, 10]: 2263 | Cell density (figure 6c) [2, 11]: 98 | Cell spreading area (figure 6b) [2, 11]: 2153 | Cell density (figure 6c) [2, 12]: 92 | Cell spreading area (figure 6b) [2, 12]: 2270.3 | Cell density (figure 6c) [2, 13]: 92 | Cell spreading area (figure 6b) [2, 13]: 2036 | Cell density (figure 6c) [2, 14]: 89 | Cell spreading area (figure 6b) [2, 14]: 2011.4 | Cell density (figure 6c) [2, 15]: 88 | Cell spreading area (figure 6b) [2, 15]: 2163 | Cell density (figure 6c) [2, 16]: 95 | Cell spreading area (figure 6b) [2, 16]: 2200 | Cell density (figure 6c) [2, 17]: 89 | Cell spreading area (figure 6b) [2, 17]: 2110.4 | Cell density (figure 6c) [2, 18]: 98 | Cell spreading area (figure 6b) [2, 18]: 2163 | Cell density (figure 6c) [2, 19]: 90 | Cell spreading area (figure 6b) [2, 19]: 2145 | Cell density (figure 6c) [2, 20]: 90 | Cell spreading area (figure 6b) [2, 20]: 2068 | Cell density (figure 6c) [2, 21]: 83 | Cell spreading area (figure 6b) [2, 21]: 1652 | Cell density (figure 6c) [2, 22]: 81 | Cell spreading area (figure 6b) [2, 22]: 1526.5 | Cell density (figure 6c) [2, 23]: 76 | Cell spreading area (figure 6b) [2, 23]: 1753 | Cell density (figure 6c) [2, 24]: 75 | Cell spreading area (figure 6b) [2, 24]: 1586.3 | Cell density (figure 6c) [2, 25]: 82 | Cell spreading area (figure 6b) [2, 25]: 1632 | Cell density (figure 6c) [2, 26]: 72 | Cell spreading area (figure 6b) [2, 26]: 1552.3 | Cell density (figure 6c) [2, 27]: 85 | Cell spreading area (figure 6b) [2, 27]: 1596.3 | Cell density (figure 6c) [2, 28]: 68 | Cell spreading area (figure 6b) [2, 28]: 1550 | Cell density (figure 6c) [2, 29]: 83 | Cell spreading area (figure 6b) [2, 29]: 1620 | Cell density (figure 6c) [2, 30]: 94 | Cell spreading area (figure 6b) [2, 30]: 2270.3 | Cell density (figure 6c) [2, 31]: 93 | Cell spreading area (figure 6b) [2, 31]: 1990.3 | Cell density (figure 6c) [2, 32]: 84 | Cell spreading area (figure 6b) [2, 32]: 2011.4 | Cell density (figure 6c) [2, 33]: 93 | Cell spreading area (figure 6b) [2, 33]: 1892.3 | Cell density (figure 6c) [2, 34]: 89 | Cell spreading area (figure 6b) [2, 34]: 2309.4 | Cell density (figure 6c) [2, 35]: 95 | Cell spreading area (figure 6b) [2, 35]: 2110.4 | Cell density (figure 6c) [2, 36]: 90 | Cell spreading area (figure 6b) [2, 36]: 2409.4 | Cell density (figure 6c) [2, 37]: 89 | Cell spreading area (figure 6b) [2, 37]: 1909 | Cell density (figure 6c) [2, 38]: 90 | Cell spreading area (figure 6b) [2, 38]: 1893 | Cell density (figure 6c) [2, 39]: 89 | Cell spreading area (figure 6b) [2, 39]: 2136 | Cell density (figure 6c) [2, 40]: 90 | Cell spreading area (figure 6b) [2, 40]: 2153.4 | Cell density (figure 6c) [2, 41]: 91 | Cell spreading area (figure 6b) [2, 41]: 2145 | Cell density (figure 6c) [2, 42]: 94 | Cell spreading area (figure 6b) [2, 42]: 2033 | Cell density (figure 6c) [2, 43]: 93 | Cell spreading area (figure 6b) [2, 43]: 2312.4 | Cell density (figure 6c) [2, 44]: 78 | Cell spreading area (figure 6b) [2, 44]: 2019.3 | Cell density (figure 6c) [2, 45]: 90 | Cell spreading area (figure 6b) [2, 45]: 2036 | Cell density (figure 6c) [2, 46]: 94 | Cell spreading area (figure 6b) [2, 46]: 2435.5 | Cell density (figure 6c) [2, 47]: 91 | Cell spreading area (figure 6b) [2, 47]: 2135
